Results as given in US20240374560A1, “FIBER-ENHANCED LIPOSOME AND METHODS” (Vidya Herbs, Inc., priority 2023, published 2024).
Structures can show the parent of a compound that is named as a salt.

What was measured:
[1] = In vitro release study of berberine, dialysis set up; assay type: physicochemical; settings: after 6 h, pH 7.4
[2] = Pharmacokinetic study of berberine after single oral dose; assay type: in vivo, Wistar rats; settings: male, Wistar, berberine in rat plasma
[3] = In vitro release study of vitamin C, dialysis set up; assay type: physicochemical; settings: after 8 h, PBS pH 7.4, 37° C.
Method: The comparative in vitro release study of vitamin C encapsulated in the inventive liposome versus and non-encapsulated vitamin C (control) was performed using the dialysis set up. […] A weighed quantity of encapsulated vitamin C (50 mg) was suspended in 10 mL of PBS and transferred into the dialysis bag (donor compartment). […] A control experiment was performed simultaneously in which unencapsulated vitamin C solution was dialyzed. […] The absorbance of the samples was measured at 295 nm. The concentration of vitamin C in the samples was determined using a standard curve.

[4] = after 3 h; dialysis, PBS pH 7.4, 37° C.
Method: The comparative in vitro release study of caffeine encapsulated in the inventive liposome versus plain caffeine (control) was performed using a dialysis set up. Prior to the diffusion experiment, the cellulose acetate dialysis membrane (Sigma Aldrich, Molecular weight cut-off (MWCO) 12 kDa) was soaked in phosphate buffered saline (PBS, pH 7.4) for 12 h. A weighed quantity of liposomal caffeine (50 mg) was suspended in 10 mL of PBS and transferred into the dialysis bag (donor compartment). The dialysis bag was placed in a beaker containing 100 mL of PBS (receptor compartment). The setup was incubated at 120 rpm for 8 h in a 37° C. shaker incubator.
A control experiment was performed simultaneously in which a plain caffeine solution was dialyzed. A 1 mL aliquot of PBS in the receptor compartment was sampled at different time points and an equal quantity of fresh PBS was replaced in the compartment after each withdrawal. The caffeine content in the samples were quantified using HPLC.

in vivo = settings: male, Wistar, rat, plasma, po, 60 mg/kg
[5] = Pharmacokinetics of ursolic acid after single oral dose; settings: ursolic acid in rat plasma
[6] = In vitro release study of glutathione, dialysis set up; assay type: physicochemical; settings: after 7 h, pH 7.4
Method: The comparative in vitro release study of glutathione encapsulated in the inventive liposome and non-encapsulated glutathione (control) was performed using the dialysis set up. […] A control experiment was performed simultaneously in which the non-encapsulated glutathione solution was dialyzed. […] The concentration of glutathione in the samples was determined using the validated HPLC method.
The mobile phase consisted of 50 mM phosphate buffer. The injection volume was 5 μL. The detection was carried out at 230 nm.

[7] = Comparative oral bioavailability of vitamin C, crossover study in healthy volunteers; settings: human, in vivo
Method: The inventive liposome comprised at least 40% w/w Vitamin C.
A group of 12 healthy volunteers were screened on Visit 1 to confirm their eligibility. Subjects fulfilling the eligibility criteria were randomized into 1 of 2-treatment sequences on Visit 2. There was a washout period of 7 days each between the 2 dosing days. […] Subjects returned to the study center for the second period. On the morning of Day 1, in each period, subjects in a fasting state (at least 10 hours before dosing) received one 600 mg capsule orally of their assigned formulation (Table 2) as per randomization scheme, with 200±2 mL of water at room temperature. The study duration was approximately 12 days (2 dosing days and 1 washout period of 7±1 days). A total of 10 blood samples were collected in each of the two study periods. The pre-dose samples (2 mL) were collected within 1 hour before dosing. The post-dose samples (1×2 mL) were collected at 30 min, 60 min, 2, 3, 4, 5, 6, 8 and 12 hours after dosing in vacuum tubes containing K2 EDTA. All blood samples were collected from an ante-cubital vein or any suitable forearm vein using an indwelling cannula. Before each blood sample is drawn, 1 mL of blood was discarded so as to prevent the saline diluted blood and heparin from interfering with the analysis.
Plasma concentrations were measured using ultra performance liquid chromatographyelectrospray ionization-tandem mass spectrometry (UPLC-ESI-MS/MS), gas chromatography mass spectrometry (GC-MS/MS) and High-Performance Liquid Chromatography (HPLC). All the pharmacokinetic parameters were compared between the two treatment groups using Pair-t-test with 5% level of significance. All statistical analysis was performed using R statistical software version 4.2.1.

In the case of COc1ccc2cc3[n+](cc2c1OC)CCc1cc2c(cc1-3)OCO2 [Control (Unformulated), berberine HCl], the “berberine cumulative release %” value [1] is reported as 100%, the AUC(0-t) ([2]; 320 mg/kg, single oral dose) is reported as 410 ± 40 ng·h/mL and the Tmax ([2]; 320 mg/kg, single oral dose) is reported as 0.25 h. For the same molecule, the half-life ([2]; 320 mg/kg, single oral dose, read-out: t½ (converted)) was 7.32 ± 0.61 h and the Cmax ([2]; single oral dose (600 mg/kg encapsulated; 320 mg/kg berberine HCl)) was 15.5 ± 9.66 ng/mL.

With C[C@H]1[C@H](C)CC[C@]2(C(=O)O)CC[C@]3(C)C(=CC[C@@H]4[C@@]5(C)CC[C@H](O)C(C)(C)[C@@H]5CC[C@]43C)[C@H]12 [Control, ursolic acid] the “vitamin C released” value [3] was 67.54%, the caffeine released [4] was 100% and the AUC(0-t) (in vivo) was 877 ± 44.6 ng·h/mL. The Cmax (in vivo) was 201 ± 42.4 ng/mL, the Tmax (in vivo) was 0.75 ± 0.35 h and the half-life (in vivo) was 4.49 ± 0.11 h. The Kel [5] was 0.15 ± 0.004 h⁻¹, the “maximum plasma concentration of UA” value [5] was 201 ± 42.43 ng/mL and the Kel ([5]; listed as control) was 0.15 ± 0.004 h⁻¹.

For N[C@@H](CCC(=O)N[C@@H](CS)C(=O)NCC(=O)O)C(=O)O [non-encapsulated glutathione, glutathione], the “glutathione cumulative release %” value [6] was 96.86%.

An AUC(0-inf) [7] of 6260 ± 4560 ng·h/mL, an AUC(0-t) [7] of 4130 ± 1740 ng·h/mL and a Cmax [7] of 970 ng/mL were found for O=C1O[C@H]([C@@H](O)CO)C(O)=C1O [unformulated Vitamin C, vitamin C] in this work. For the same molecule, the MRT [7] was 9.3 ± 8.42 h, the Tmax [7] was 2.67 ± 1.07 h and the “Plasma concentration of vitamin C, Mean” value ([7]; 0.5 h) was 219.99. The “Plasma concentration of vitamin C, Mean” value ([7]; 1 h) was 502.39, the “Plasma concentration of vitamin C, Mean” value ([7]; 2 h) was 728.44 and the “Plasma concentration of vitamin C, Mean” value ([7]; 3 h) was 680.46. For the same molecule, the “Plasma concentration of vitamin C, Mean” value ([7]; 4 h) was 456.28, the “Plasma concentration of vitamin C, Mean” value ([7]; 5 h) was 405.53 and the “Plasma concentration of vitamin C, Mean” value ([7]; 6 h) was 338.54. For the same molecule, the “Plasma concentration of vitamin C, Mean” value ([7]; 8 h) was 219.14 and the “Plasma concentration of vitamin C, Mean” value ([7]; 12 h) was 162.08.
